Laboratory results: patent US11384060B2, “Amide compounds and use thereof” (ALPHALA CO., LTD., priority 2017, dated 2022)
Like-named read-outs stand apart in the source and are kept apart here.

Tests used:
[1] = biological target: T1, glucagon receptor (GCGR) overexpressed CHO-K1 cells or human primary hepatocytes (Homo sapiens, UniProt P47871); experiment: Glucagon cAMP inhibition assay (Cisbio cAMP Dynamic 2 HTRF); assay type: cell-based
T1 construct: expressed in transfected cells; host or cells: GCGR overexpressed CHO-K1 cells or human primary hepatocytes (endogenous receptor)
Outline: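 GCGR-overexpressing CHO-K1 cells or human primary hepatocytes in HBSS with 0.1% BSA and 800 nM IBMX, pre-incubated 30 min with serially diluted compounds (1% DMSO final), then stimulated 30 min at room temperature with glucagon at its EC50. cAMP measured by HTRF after 60 min lysis; IC50 by non-linear regression.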

glucagon receptor (GCGR) = biological target: T2, glucagon receptor (GCGR) (Homo sapiens, UniProt P47871); experiment: I125-glucagon binding assay (competition, GCGR membrane fractions)
T2 construct: expressed in transfected cells; host or cells: CHO-K1 cells overexpressing GCGR (membrane fractions)
Outline: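 Membranes from CHO-K1 cells overexpressing GCGR, 7.5 μg/well in 50 mM Tris pH 7.4 with 0.5% BSA, were preincubated 5 min with serially diluted compounds, then given 0.0625 nM final I^125-glucagon for 30 min at 25° C. Bound label was filtered on PEI-coated GF/B and counted; IC50 by non-linear regression.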

[2] = inhibition of glucagon (EC50 concentration) induced cAMP production
[3] = competition with I125-glucagon 0.0625 nM, membrane fractions of GCGR overexpressed CHO-K1 cells

T1 sequence (P47871 26-477): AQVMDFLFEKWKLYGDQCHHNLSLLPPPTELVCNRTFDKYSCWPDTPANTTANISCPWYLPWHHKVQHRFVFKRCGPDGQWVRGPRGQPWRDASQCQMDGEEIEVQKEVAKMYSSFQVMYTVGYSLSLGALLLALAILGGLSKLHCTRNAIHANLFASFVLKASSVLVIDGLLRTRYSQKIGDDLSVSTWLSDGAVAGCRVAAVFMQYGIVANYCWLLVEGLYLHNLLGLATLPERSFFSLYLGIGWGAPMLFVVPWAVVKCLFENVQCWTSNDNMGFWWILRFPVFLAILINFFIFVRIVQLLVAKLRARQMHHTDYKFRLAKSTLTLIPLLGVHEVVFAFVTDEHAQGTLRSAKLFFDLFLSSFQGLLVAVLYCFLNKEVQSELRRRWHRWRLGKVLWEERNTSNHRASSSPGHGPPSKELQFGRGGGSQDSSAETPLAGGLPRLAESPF
T2 sequence (P47871 26-477): as above

| IC50 cAMP [1] | IC50 (glucagon receptor (GCGR)) | IC50 cAMP [1, 2] | IC50 (glucagon receptor (GCGR); [3]) | Compound |
| --- | --- | --- | --- | --- |
| 5200 nM | 462 nM | – | – | O=C(O)CCNC(=O)c1ccc(N[C@@H](Cc2ccccc2)C(=O)Nc2ccc(-c3ccc(Cl)cc3Cl)cc2)cc1 [Compound 23-2, (S)-3-(4-((1-((2′,4′-dichloro-[1,1′-biphenyl]-4-yl)amino)-1-oxo-3-phenylpropan-2-yl)amino)benzamido)propanoic Acid] |
| – | – | 245.8 nM | 91 nM | Cc1cc(OC[C@@H](Nc2ccc(C(=O)NCCC(=O)O)cc2)C(C)C)cc(C)c1-c1ccc(C(F)(F)F)cc1 [Compound 2-4, (S)-3-(4-((1-((2,6-dimethyl-4′-(trifluoromethyl)-[1,1′-biphenyl]-4-yl)oxy)-3-methylbutan-2-yl)amino)benzamido)propanoic Acid] |
| – | – | 1307 nM | 989 nM | CC[C@H](C)[C@@H](COc1ccc(-c2ccc(C(F)(F)F)cc2)nn1)Nc1ccc(C(=O)NCCC(=O)O)cc1 [Compound 17-3, 3-(4-(((2S,3S)-3-methyl-1-((6-(4-(trifluoromethyl)phenyl)pyridazin-3-yl)oxy)pentan-2-yl)amino)benzamido)propanoic Acid] |
| – | – | 493 nM | 465 nM | Cc1cc(OC[C@H](CC(C)C)Nc2ccc(C(=O)NCCC(=O)O)cc2)cc(C)c1-c1ccc(OC(F)(F)F)cc1 [Compound 2-3, (S)-3-(4-((1-((2,6-dimethyl-4′-(trifluoromethoxy)-[1,1′-biphenyl]-4-yl)oxy)-4-methylpentan-2-yl)amino)benzamido)propanoic Acid] |
| 1543 nM | 390 nM | – | – | CC(C)[C@@H](COc1ccc(-c2ccc(C(F)(F)F)cc2)cn1)Nc1ccc(C(=O)NCc2nnn[nH]2)cc1 [Compound 15-2, (S)—N-((1H-tetrazol-5-yl)methyl)-4-((3-methyl-1-((5-(4-(trifluoromethyl)phenyl)pyridin-2-yl)oxy)butan-2-yl)amino)benzamide] |
| – | – | 93 nM | 11 nM | CCCC[C@@H](COc1ccc(-c2ccc(C(F)(F)F)cc2Cl)cc1)Nc1ccc(C(=O)NCCC(=O)O)cc1 [Compound 1-19, (S)-3-(4-((1-((2′-chloro-4′-(trifluoromethyl)-[1,1′-biphenyl]-4-yl)oxy)hexan-2-yl)amino)benzamido)propanoic Acid] |
| – | – | 363.5 nM | 103 nM | CC(C)[C@@H](COc1ccc(-c2cc3ccccc3o2)c(Cl)c1)Nc1ccc(C(=O)NCCC(=O)O)cc1 [Compound 3-7, (S)-3-(4-((1-(4-(benzofuran-2-yl)-3-chlorophenoxy)-3-methylbutan-2-yl)amino)benzamido)propanoic Acid] |
| 4700 nM | 1870 nM | – | – | CC(C)(C)c1ccc(NC(=O)[C@H](Cc2cccc3ccccc23)Nc2ccc(C(=O)NCCC(=O)O)cc2)cc1 [Compound 23-18, (S)-3-(4-((1-((4-(tert-butyl)phenyl)amino)-3-(naphthalen-1-yl)-1-oxopropan-2-yl)amino)benzamido)propanoic Acid] |
| – | – | 139 nM | 95 nM | COc1cc(OC[C@@H](Nc2ccc(C(=O)NCCC(=O)O)cc2)C(C)C)ccc1-c1ccc(Cl)cc1Cl [Compound 13-7, (S)-3-(4-((1-((2′,4′-dichloro-2-methoxy-[1,1′-biphenyl]-4-yl)oxy)-3-methylbutan-2-yl)amino)benzamido)propanoic Acid] |
| – | – | 23347 nM | 608 nM | CC[C@H](C)[C@@H](COc1ccc(-c2nnc(-c3ccccc3)o2)c(OC)c1)Nc1ccc(C(=O)NCCC(=O)O)cc1 [Compound 13-12, 3-(4-(((2S,3S)-1-(3-methoxy-4-(5-phenyl-1,3,4-oxadiazol-2-yl)phenoxy)-3-methylpentan-2-yl)amino)benzamido)propanoic Acid] |
| – | – | 28.1 nM | 30 nM | CCCC[C@@H](COc1ccc(-c2ccc(Cl)cc2Cl)c(Cl)c1)Nc1ccc(C(=O)NCCC(=O)O)cc1 [Compound 3-12, (S)-3-(4-((1-((2,2′,4′-trichloro-[1,1′-biphenyl]-4-yl)oxy)hexan-2-yl)amino)benzamido)propanoic Acid] |
